In publication PMC12503906, “Novel Pyrazolo [1,5‐a]−1,3,5‐Triazine Derivatives as CDK7 Inhibitors: Synthesis and Biological Insights in Pancreatic Ductal Adenocarcinoma Models” (Chemmedchem, 2025):
Like-named read-outs stand apart in the source and are kept apart here.

How the values were obtained:
Type in all cases: cell-based
PATU‐T [1] = experiment: Annexin V apoptosis assay, PATU‐T; conditions: 1 × IC50
Description: In order to investigate the apoptotic properties of the compounds 1b and 1g, the Annexin V apoptosis assay was performed. Annexins are calcium‐dependent phospholipid binding proteins, which are able to bind to phosphatidylserine (PS). The externalization of PS residues on the outer membrane of apoptotic cells can be detected by Annexin V.
For this assay, cells were seeded in a 96‐well plate at a concentration of 13.5 × 10^3 and 4.5 × 10^3 /well respectively for the 24 and 72 h experiments. The next day cells were treated with compounds 1b and 1g at 1 × IC50 and 4 × IC50 concentrations. The apoptosis assay was performed 24 and 72 h post‐treatment following the BD Pharmingen FITC Annexin V Apoptosis Detection Kit I (BD Biosciences, 556,547). The supernatant was aspirated, and cells were washed with phosphate‐buffered saline (PBS). Cells were consequently treated with binding buffer BBA + Annexin V (1:100) and were incubated in the dark at RT for 10 min. The supernatant was removed, and the cells were washed with BBA (1:10). Cells were then incubated with BBA + PI (1:100) and were immediately read with the spectrophotometer at ex. 485/ em. 535. Two different programs were used to read the Annexin V and the PI absorbance. Lastly, 100 µL of PBS were added to each well before being fixed with TCA. This was followed by the SRB assay to standardize fluorescence data according to cell count. Data were exported into GraphPad Prism 10 for statistical analysis.

PDAC3 [2] = experiment: Cell cycle analysis (FACS, PI staining), PDAC3; conditions: for percentage of cells in the G2‐M phase: untreated 13.3%; for percentage of cells in the S phase: untreated 36.7%; for percentage of cells in the G0‐G1 phase: untreated 50.0%
Description: (§1) Modulation of the cell cycle was analyzed via flow cytometry. Cells (5 × 10^5 cells mL^− ^1) were seeded in 6‐well plates and were incubated at 37 °C overnight. Cells were treated with the compounds 1b and 1g at two different concentrations (1 × IC50 and 4 × IC50, according to each cell line) and were again incubated for 24 and 72 h. After treatment, cells were harvested with trypsin and were collected in specific fluorescence‐activated cell sorting (FACS) tubes. Cells were then washed with PBS and centrifuged at 1500 rpm for 5 min, in order to form a pellet. These pellets were fixed in 1 mL of ice‐cold 70% ethanol, added drop by drop during vortex, and placed in the refrigerator at 4 °C. After overnight incubation, the cells were washed twice with PBS, centrifuged (5 min at 1500 rpm), resuspended in 50 µL of RNase (100 µg mL^− ^1), and incubated for 30 min at 37 °C. Finally, 200 µL of propidium iodide solution (PI, 50 µg mL^− ^1) was added, and the cell distribution in the various phases of the cell cycle was analyzed via BD LSRFortessa Cell Analyzer. Data analysis was carried out with FACSdiva software (Becton Dickinson), while cell cycle distribution was determined using FCS express software.

PATU‐T [3] = experiment: Cell cycle analysis (FACS, PI staining), PATU‐T; conditions: for percentage of cells in the G2‐M phase: untreated 18.4%; for percentage of cells in the S phase: untreated 32.5%; for percentage of cells in the G0‐G1 phase: untreated 49.1%
Description: as §1

PDAC3 [4] = experiment: SRB chemosensitivity assay, primary PDAC3 cells
Description: (§2) Three lines of immortalized PDAC cells were selected as representative phenotypes: mesenchymal (PATU‐T), quasimesenchymal (PANC‐1), and an epithelial clone of SUIT 2 cells (SUIT 2.28). Cells were cultured in noncoated T‐75 and T‐25 flasks under adherent conditions, using 1× DMEM (Gibco, 41,966,029) for PATU‐T and RPMI (Gibco, 21,875,034) for SUIT 2.28 and PANC‐1, both supplemented with 10% NBCS and 1% P/S. Additional employed models were the PDAC3 cells, a primary cell culture, the PSCs, which were immortalized healthy pancreatic cells, and the PATU‐T‐GR, which was a gemcitabine resistant model of PATU‐T. PDAC3 and PSCs were cultivated using complete RPMI medium, while PATU‐T‐GR required complete DMEM medium. For seeding, cells were detached with Trypsin‐EDTA (0.05%) (GibcoTM, 25,300–096) and were consequently counted using the Automated Cell Counter (Luna‐II, Westburg). Cells were then plated on 96‐ or 6‐well plates depending on the planned experiment.
(§3) The Sulforhodamine B (SRB) chemosensitivity assay was used to measure cytotoxicity and cell proliferation post drug treatment. At day 0, 3–6 × 10^3 cells were seeded in a 96‐well plate, depending on the cell line. At day 1, cells were attached and ready to be treated. For the calculation of the IC50, drug dilutions for the compounds 1b, 1c, 1d, 1e, 1g, 1hr, 1i, 1j, and LDC4297 (MedChemExpress, HY‐12,653) were prepared in dilution trays and eight different concentrations were included. These were added in triplicates to the cells, which were then incubated for […] at 37 °C in 5% CO2. During day 1, the control plate was fixed with 50% Trichloroacetic acid (TCA), as intended to be the baseline plate used for the normalization of the data. 72 h post‐treatment, the cells were fixed with TCA, and placed at 4 °C for about 2 h. The plates were then washed with distillated water and left to dry under the hood with ventilation. Subsequently, plates were stained with 0.4% SRB for 15 min and washed with 1% acetic acid to remove excess stain. Once dried again, the protein‐bound SRB was dissolved in 10 mM TRIS, and the plates were placed on a shaker for 10 min per plate. Lastly, the absorbance was measured at 492 nm with a spectrophotometer (Synergy HT, BioTek). The absorbance data obtained were normalized to the day 1 control, and the percentage of cell growth in relation to the control was calculated using the following formula. (1) %Cell growth=Mean OD treatment−Mean OD day0/Mean OD control−Mean OD day0×100
(§4) The percentage of proliferation and their respective standard deviations were used to perform statistical analysis in GraphPad Prism software v 10 (GraphPad Software, San Diego, CA). Data were normalized to the day 0 control and to their own untreated 72 h control. These were transformed into logarithmic data, and log(inhibitor) versus response analysis was performed for obtaining the IC50 values per cell lines. Each experiment was conducted in triplicates.

SUIT 2.28 = experiment: SRB chemosensitivity assay, SUIT 2.28 cells; conditions: read-out: IC50 SUIT 2.28
Description: as §2, §3, §4

PANC‐1 = experiment: SRB chemosensitivity assay, PANC‐1 cells; conditions: Homo sapiens, read-out: IC50 PANC‐1
Description: as §2, §3, §4

PSC = experiment: SRB chemosensitivity assay, pancreatic stellate cells (PSC); conditions: Fibroblast, read-out: IC50 PSC
Description: as §2
as §3, with “The plates were then washed with distillated water and left to dry under the hood with ventilation. Subsequently, plates were stained with 0.4% SRB for 15 min and washed with 1% acetic acid to remove excess stain. Once dried again, the protein‐bound SRB was dissolved in 10 mM TRIS, and the plates were placed on a shaker for 10 min per plate.” left out, “(1) %Cell growth=Mean OD treatment−Mean OD day0/Mean OD control−Mean OD day0×100” left out

| Compound | apoptotic index (PATU‐T [1]; 24 h) | apoptotic index (PATU‐T [1]; 72 h) | percentage of cells in the G2‐M phase (PDAC3 [2]; PDAC3, 1 × IC50, 24 h) | percentage of cells in the G0‐G1 phase (PDAC3 [2]; PDAC3, 1 × IC50, 24 h) | percentage of cells in the G2‐M phase (PDAC3 [2]; PDAC3, 4 × IC50, 24 h) | percentage of cells in the S phase (PDAC3 [2]; PDAC3, 4 × IC50, 24 h) | percentage of cells in the G0‐G1 phase (PDAC3 [2]; PDAC3, 4 × IC50, 24 h) | percentage of cells in the G2‐M phase (PATU‐T [3]; 1 × IC50, 24 h) | percentage of cells in the S phase (PATU‐T [3]; 1 × IC50, 24 h) | percentage of cells in the G0‐G1 phase (PATU‐T [3]; 1 × IC50, 24 h) | percentage of cells in the G2‐M phase (PATU‐T [3]; 4 × IC50, 24 h) | percentage of cells in the S phase (PATU‐T [3]; 4 × IC50, 24 h) | percentage of cells in the G0‐G1 phase (PATU‐T [3]; 4 × IC50, 24 h) | further results |
| --- | --- | --- | --- | --- | --- | --- | --- | --- | --- | --- | --- | --- | --- | --- |
| Cn1cc(-c2cc3ncnc(N)n3n2)c2cc(Br)ccc21 [Compound 1g, 7‐(5‐Bromo‐1‐methyl‐1H‐indol‐3‐yl)pyrazolo[1,5‐a][1,3,5]triazin‐4‐amine] | significantly increased apoptosis | not significant compared to control | 13.3% | 55.9% | 9.8% | 30.4% | 59.8% | 17.7% | 35.0% | 47.4% | 15.2% | 39.0% | 45.7% | percentage of cells in the S phase (PDAC3 [2]; PDAC3, 1 × IC50, 24 h): 30.8%; IC50 (PDAC3 [4]; PDAC-3, read-out: IC50 PDAC3, SRB, primary cell line, average ± SEM, triplicate): 0.684 µM; IC50 (PDAC3 [4]; read-out: IC50 PDAC3, SRB, primary cell line, average ± SEM, triplicate): 0.7 ± 0.1 µM; IC50 (SUIT 2.28; 72 h): 0.2 ± 0.1 µM; IC50 (PANC‐1; PANC-1, 72 h): 2.9 ± 0.8 µM; IC50 (PSC): 5.3 ± 1.1 µM |
| Nc1ncnc2cc(-c3c[nH]c4ccc(Br)cc34)nn12 [Compound 1b, 7‐(5‐Bromo‐1H‐indol‐3‐yl)pyrazolo[1,5‐a][1,3,5]triazin‐4‐amine] | did not show a significant apoptotic index | significant increase in apoptotic index | 11.1% | 44.0% | 6.9% | 51.6% | 41.6% | 14.9% | 49.6% | 35.5% | 10.1% | 60.0% | 30.0% | IC50 (PDAC3 [4]; PDAC-3, SRB, primary cell line, average ± SEM, triplicate, read-out: IC50 PDAC3): 1.27 µM; IC50 (PDAC3 [4]; SRB, primary cell line, average ± SEM, triplicate, read-out: IC50 PDAC3): 1.3 ± 0.2 µM; IC50 (SUIT 2.28; SRB, 72 h of treatment, average ± SEM, triplicate): 0.6 ± 0.1 µM; IC50 (PANC‐1; PANC-1, SRB, 72 h of treatment, average ± SEM, triplicate): 4.3 ± 0.8 µM; IC50 (PSC; SRB, nontumorous immortalized pancreatic fibroblasts, average ± SEM, triplicate): 6.6 ± 0.7 µM |
